Patent publication US7074789B2, “Kinase inhibitors” (Amgen Inc., priority 1999, dated 2006)

Assays:
Format in all cases: biochemical
[1] = target: T1, Tek (Homo sapiens, UniProt Q02763); experiment: Kinase inhibition assay (33P transfer), Tek; conditions: read-out: Tek-1
T1 construct: Kinases are expressed as either kinase domains or full length constructs; made in house
Summary of the method: (§1)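 IC50: inhibitor concentration lowering 33P incorporation into immobilised substrate by 50%. Label transferred from ATP to poly(Glu,Tyr) 4:1 or poly(Arg,Ser) 3:1 is measured after a 0.5% phosphoric acid wash by liquid scintillation.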

[2] = target: T2, Lyn (Homo sapiens, UniProt P07948); experiment: Kinase inhibition assay (33P transfer), Lyn; conditions: Table 6, Lyn-1 kinase inhibition class
T2 construct: Kinases are expressed as either kinase domains or full length constructs; made in house
Summary of the method: as §1

[3] = target: T3, FGFR1 (Homo sapiens, UniProt P11362); experiment: Kinase inhibition assay (33P transfer), FGFR1; conditions: read-out: FGFR1-1
T3 construct: Kinases are expressed as either kinase domains or full length constructs; made in house

[4] = target: T4, Fyn (Homo sapiens, UniProt P06241); experiment: Kinase inhibition assay (33P transfer), Fyn; conditions: read-out: Fyn-1
T4 construct: Kinases are expressed as either kinase domains or full length constructs; made in house
Summary of the method: as §1

[5] = target: T5, Zap-70 (Homo sapiens, UniProt P43403); experiment: Kinase inhibition assay (33P transfer), Zap-70; conditions: read-out: Zap-1
T5 construct: Kinases are expressed as either kinase domains or full length constructs; made in house
T5 sequence (P43403 1-619): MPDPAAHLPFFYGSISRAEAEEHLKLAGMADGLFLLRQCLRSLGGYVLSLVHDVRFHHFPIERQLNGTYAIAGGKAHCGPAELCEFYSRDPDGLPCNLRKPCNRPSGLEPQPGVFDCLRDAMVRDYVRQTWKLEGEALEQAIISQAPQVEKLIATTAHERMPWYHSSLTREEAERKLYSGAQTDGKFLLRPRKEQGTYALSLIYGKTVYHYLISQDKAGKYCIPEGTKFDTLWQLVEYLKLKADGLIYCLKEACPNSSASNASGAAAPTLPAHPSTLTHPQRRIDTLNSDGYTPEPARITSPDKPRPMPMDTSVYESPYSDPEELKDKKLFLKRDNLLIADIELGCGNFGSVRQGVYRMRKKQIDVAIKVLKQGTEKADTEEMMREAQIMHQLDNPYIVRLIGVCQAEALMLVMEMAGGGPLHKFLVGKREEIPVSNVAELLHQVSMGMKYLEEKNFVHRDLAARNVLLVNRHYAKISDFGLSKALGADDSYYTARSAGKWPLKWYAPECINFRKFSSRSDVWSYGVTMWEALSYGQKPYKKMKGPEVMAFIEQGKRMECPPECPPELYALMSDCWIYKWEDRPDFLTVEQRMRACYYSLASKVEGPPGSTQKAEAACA
Summary of the method: (§2)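 GST/His-tagged kinase (domain or full length; E. coli or baculovirus) + [33P]ATP on plates coated with poly(Glu,Tyr) 4:1 or poly(Arg,Ser) 3:1; incubate, wash 0.5% H3PO4, add scintillant, count.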

[6] = target: T6, Ret-1 (Homo sapiens, UniProt P07949); experiment: Kinase inhibition assay (33P transfer), Ret; conditions: Table 6, Ret-1 kinase inhibition class
T6 construct: Kinases are expressed as either kinase domains or full length constructs; made in house

[7] = target: T7, Kdr (Homo sapiens, UniProt P35968); experiment: Kinase inhibition assay (33P transfer), Kdr; conditions: read-out: KDR-1
T7 construct: Kinases are expressed as either kinase domains or full length constructs; made in house
Summary of the method: as §2

[8] = target: T8, Src (Homo sapiens, UniProt P12931); experiment: Kinase inhibition assay (33P transfer), Src; conditions: Table 6, Src-1 kinase inhibition class
T8 construct: Kinases are expressed as either kinase domains or full length constructs; made in house
T8 sequence (P12931 whole entry, species assumed, the tested form may be a part): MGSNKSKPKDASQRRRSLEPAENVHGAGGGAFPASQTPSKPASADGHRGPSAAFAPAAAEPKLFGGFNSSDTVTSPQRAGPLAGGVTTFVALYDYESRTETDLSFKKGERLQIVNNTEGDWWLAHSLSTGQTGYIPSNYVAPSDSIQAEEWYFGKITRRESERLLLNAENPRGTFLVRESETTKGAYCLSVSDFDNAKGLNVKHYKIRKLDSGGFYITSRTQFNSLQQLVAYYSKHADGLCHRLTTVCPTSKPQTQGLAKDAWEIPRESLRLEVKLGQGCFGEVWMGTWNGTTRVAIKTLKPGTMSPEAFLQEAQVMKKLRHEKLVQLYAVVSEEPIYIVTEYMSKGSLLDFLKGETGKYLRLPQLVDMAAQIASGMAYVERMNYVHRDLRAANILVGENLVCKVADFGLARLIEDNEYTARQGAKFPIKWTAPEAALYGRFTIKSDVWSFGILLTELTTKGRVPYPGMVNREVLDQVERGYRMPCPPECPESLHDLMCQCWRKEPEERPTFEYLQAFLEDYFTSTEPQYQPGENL
Summary of the method: as §1

[9] = target: T9, IGFR-1 (Homo sapiens, UniProt P08069); experiment: Kinase inhibition assay, IGFR-1 (Table 2); conditions: Table 2, kinase inhibition class
T9 construct: Kinases are expressed as either kinase domains or full length constructs; made in house

[10] = target: T10, PDGFRB (Homo sapiens, UniProt P09619); experiment: Kinase inhibition assay (33P transfer), PDGFRB; conditions: read-out: PDGFRB-1
T10 construct: Kinases are expressed as either kinase domains or full length constructs; made in house
T10 sequence (P09619 33-1106, species assumed): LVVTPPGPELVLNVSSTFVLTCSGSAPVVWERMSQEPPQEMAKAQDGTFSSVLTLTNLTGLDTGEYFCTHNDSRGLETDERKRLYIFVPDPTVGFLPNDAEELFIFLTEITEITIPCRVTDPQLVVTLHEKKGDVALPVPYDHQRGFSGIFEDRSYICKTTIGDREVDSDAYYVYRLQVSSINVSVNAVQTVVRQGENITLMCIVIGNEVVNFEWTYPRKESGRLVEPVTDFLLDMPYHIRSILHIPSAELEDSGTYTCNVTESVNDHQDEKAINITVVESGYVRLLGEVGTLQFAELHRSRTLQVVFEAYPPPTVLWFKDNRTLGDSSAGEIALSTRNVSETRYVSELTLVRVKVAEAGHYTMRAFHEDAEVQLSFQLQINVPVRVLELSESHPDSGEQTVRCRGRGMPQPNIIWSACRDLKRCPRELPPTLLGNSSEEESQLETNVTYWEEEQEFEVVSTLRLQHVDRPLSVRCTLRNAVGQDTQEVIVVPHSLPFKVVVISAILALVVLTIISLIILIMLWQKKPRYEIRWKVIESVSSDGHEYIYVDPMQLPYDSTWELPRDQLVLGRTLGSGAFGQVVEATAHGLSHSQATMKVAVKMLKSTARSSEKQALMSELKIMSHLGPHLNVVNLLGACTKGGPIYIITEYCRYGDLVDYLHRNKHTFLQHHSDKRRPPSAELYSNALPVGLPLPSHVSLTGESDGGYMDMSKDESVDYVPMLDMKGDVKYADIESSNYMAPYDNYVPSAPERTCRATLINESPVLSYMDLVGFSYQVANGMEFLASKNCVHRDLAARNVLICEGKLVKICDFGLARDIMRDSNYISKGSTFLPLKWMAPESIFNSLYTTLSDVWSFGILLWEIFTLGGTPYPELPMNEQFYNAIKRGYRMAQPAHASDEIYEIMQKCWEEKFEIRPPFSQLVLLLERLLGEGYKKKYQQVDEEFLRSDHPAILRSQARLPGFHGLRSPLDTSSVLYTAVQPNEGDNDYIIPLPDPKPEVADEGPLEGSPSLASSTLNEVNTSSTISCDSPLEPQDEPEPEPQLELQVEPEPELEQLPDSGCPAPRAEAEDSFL

[11] = target: T11, EGFR (Homo sapiens, UniProt P00533); experiment: Kinase inhibition assay (33P transfer), EGFR; conditions: Table 2, kinase inhibition class; read-out: EGFR-1
T11 construct: Kinases are expressed as either kinase domains or full length constructs; made in house
Summary of the method: as §1

[12] = target: T12, Itk (Homo sapiens, UniProt Q08881); experiment: Kinase inhibition assay (33P transfer), Itk; conditions: read-out: Itk-1
T12 construct: Kinases are expressed as either kinase domains or full length constructs; made in house
T12 sequence (Q08881 1-620): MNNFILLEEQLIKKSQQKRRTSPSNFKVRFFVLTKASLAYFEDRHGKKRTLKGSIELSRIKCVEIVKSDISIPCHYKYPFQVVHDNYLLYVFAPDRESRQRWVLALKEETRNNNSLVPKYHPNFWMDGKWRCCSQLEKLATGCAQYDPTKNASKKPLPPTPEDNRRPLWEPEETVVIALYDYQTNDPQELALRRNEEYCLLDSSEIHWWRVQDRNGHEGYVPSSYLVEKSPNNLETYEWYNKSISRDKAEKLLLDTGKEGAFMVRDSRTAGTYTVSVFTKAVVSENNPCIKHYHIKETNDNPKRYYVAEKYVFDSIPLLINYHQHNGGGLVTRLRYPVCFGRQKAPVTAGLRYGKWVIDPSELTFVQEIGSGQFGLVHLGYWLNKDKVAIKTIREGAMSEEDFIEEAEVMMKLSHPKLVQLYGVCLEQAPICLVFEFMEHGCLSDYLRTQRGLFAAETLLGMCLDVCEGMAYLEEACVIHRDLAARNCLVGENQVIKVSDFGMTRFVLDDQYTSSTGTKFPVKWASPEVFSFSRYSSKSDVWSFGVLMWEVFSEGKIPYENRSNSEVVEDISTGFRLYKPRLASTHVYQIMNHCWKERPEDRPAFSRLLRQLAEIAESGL
Summary of the method: as §1

[13] = target: T13, AKT (Homo sapiens, UniProt Q9Y243); experiment: Kinase inhibition assay (33P transfer), AKT; conditions: Table 2, kinase inhibition class; read-out: AKT3-1
T13 construct: Kinases are expressed as either kinase domains or full length constructs; made in house
T13 sequence (Q9Y243 whole entry, the tested form may be a part): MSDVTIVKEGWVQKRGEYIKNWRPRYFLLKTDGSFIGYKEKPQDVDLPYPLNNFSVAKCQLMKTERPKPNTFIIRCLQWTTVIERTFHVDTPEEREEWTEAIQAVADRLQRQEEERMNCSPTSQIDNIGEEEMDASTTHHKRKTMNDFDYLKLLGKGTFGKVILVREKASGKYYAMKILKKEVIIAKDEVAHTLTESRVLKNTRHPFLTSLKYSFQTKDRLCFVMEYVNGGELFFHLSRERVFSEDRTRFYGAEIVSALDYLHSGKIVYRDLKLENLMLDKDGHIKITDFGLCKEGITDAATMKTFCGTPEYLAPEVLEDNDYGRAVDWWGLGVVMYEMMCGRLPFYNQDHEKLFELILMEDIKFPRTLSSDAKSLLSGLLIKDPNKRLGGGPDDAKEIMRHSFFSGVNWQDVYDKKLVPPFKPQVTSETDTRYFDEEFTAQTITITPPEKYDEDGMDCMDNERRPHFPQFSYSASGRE
Summary of the method: as §2

[14] = target: T14, Flt-1 (Homo sapiens, UniProt P17948); experiment: Kinase inhibition assay (33P transfer), Flt-1
T14 construct: Kinases are expressed as either kinase domains or full length constructs; made in house
Summary of the method: as §1

[15] = target: T15, ErbB4 (Homo sapiens, UniProt Q15303); experiment: Kinase inhibition assay (33P transfer), ErbB4; conditions: read-out: ErbB4-1
T15 construct: Kinases are expressed as either kinase domains or full length constructs; made in house

[16] = target: T16, ErbB2 (Homo sapiens, UniProt P04626); experiment: Kinase inhibition assay (33P transfer), ErbB2; conditions: read-out: ErbB2-2
T16 construct: Kinases are expressed as either kinase domains or full length constructs; made in house
T16 sequence (P04626 23-1255, species assumed): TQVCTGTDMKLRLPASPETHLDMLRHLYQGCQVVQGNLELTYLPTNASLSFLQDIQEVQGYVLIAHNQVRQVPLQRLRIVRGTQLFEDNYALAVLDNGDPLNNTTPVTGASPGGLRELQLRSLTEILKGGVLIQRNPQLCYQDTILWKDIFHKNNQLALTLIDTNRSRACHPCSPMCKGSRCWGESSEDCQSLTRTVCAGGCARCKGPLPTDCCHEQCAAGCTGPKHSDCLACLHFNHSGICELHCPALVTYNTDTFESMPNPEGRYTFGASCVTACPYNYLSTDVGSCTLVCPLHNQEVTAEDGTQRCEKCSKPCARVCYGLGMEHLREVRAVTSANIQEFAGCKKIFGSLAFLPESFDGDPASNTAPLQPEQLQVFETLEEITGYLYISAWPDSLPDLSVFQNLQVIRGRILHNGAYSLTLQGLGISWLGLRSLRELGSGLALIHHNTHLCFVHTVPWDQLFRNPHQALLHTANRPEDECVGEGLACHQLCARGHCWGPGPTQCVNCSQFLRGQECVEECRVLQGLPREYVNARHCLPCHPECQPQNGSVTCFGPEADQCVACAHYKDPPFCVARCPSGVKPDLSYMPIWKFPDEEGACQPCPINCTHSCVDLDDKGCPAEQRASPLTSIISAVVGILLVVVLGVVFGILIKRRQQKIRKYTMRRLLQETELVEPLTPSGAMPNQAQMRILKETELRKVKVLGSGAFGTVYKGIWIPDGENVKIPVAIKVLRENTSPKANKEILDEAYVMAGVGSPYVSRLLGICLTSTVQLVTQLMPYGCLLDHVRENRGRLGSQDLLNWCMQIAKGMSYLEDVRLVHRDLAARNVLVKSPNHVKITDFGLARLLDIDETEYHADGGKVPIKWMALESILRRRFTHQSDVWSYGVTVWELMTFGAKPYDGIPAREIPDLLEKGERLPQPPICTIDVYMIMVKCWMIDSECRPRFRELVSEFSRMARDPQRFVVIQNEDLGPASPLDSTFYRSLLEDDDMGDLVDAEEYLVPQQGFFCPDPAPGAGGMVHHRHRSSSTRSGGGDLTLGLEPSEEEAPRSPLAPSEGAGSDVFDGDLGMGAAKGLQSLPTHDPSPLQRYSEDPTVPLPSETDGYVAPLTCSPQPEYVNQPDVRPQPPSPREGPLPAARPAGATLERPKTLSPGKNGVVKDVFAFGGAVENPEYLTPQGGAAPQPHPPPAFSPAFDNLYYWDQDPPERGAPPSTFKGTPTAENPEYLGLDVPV
Summary of the method: as §1

[17] = target: T17, Hck-1 (Homo sapiens, UniProt P08631); experiment: Kinase inhibition assay (33P transfer), Hck; conditions: Table 6, Hck-1 kinase inhibition class
T17 construct: Kinases are expressed as either kinase domains or full length constructs; made in house

[18] = target: T18, Lck (Homo sapiens, UniProt P06239); experiment: Kinase inhibition assay (33P transfer), Lck; conditions: read-out: Lck-1
T18 construct: Kinases are expressed as either kinase domains or full length constructs; made in house
Summary of the method: as §2

[19] = target: T19, c-Met (Homo sapiens, UniProt P08581); experiment: Kinase inhibition assay (33P transfer), c-Met; conditions: Table 2, kinase inhibition class; read-out: Met-1
T19 construct: Kinases are expressed as either kinase domains or full length constructs; made in house
T19 sequence (P08581 25-1390): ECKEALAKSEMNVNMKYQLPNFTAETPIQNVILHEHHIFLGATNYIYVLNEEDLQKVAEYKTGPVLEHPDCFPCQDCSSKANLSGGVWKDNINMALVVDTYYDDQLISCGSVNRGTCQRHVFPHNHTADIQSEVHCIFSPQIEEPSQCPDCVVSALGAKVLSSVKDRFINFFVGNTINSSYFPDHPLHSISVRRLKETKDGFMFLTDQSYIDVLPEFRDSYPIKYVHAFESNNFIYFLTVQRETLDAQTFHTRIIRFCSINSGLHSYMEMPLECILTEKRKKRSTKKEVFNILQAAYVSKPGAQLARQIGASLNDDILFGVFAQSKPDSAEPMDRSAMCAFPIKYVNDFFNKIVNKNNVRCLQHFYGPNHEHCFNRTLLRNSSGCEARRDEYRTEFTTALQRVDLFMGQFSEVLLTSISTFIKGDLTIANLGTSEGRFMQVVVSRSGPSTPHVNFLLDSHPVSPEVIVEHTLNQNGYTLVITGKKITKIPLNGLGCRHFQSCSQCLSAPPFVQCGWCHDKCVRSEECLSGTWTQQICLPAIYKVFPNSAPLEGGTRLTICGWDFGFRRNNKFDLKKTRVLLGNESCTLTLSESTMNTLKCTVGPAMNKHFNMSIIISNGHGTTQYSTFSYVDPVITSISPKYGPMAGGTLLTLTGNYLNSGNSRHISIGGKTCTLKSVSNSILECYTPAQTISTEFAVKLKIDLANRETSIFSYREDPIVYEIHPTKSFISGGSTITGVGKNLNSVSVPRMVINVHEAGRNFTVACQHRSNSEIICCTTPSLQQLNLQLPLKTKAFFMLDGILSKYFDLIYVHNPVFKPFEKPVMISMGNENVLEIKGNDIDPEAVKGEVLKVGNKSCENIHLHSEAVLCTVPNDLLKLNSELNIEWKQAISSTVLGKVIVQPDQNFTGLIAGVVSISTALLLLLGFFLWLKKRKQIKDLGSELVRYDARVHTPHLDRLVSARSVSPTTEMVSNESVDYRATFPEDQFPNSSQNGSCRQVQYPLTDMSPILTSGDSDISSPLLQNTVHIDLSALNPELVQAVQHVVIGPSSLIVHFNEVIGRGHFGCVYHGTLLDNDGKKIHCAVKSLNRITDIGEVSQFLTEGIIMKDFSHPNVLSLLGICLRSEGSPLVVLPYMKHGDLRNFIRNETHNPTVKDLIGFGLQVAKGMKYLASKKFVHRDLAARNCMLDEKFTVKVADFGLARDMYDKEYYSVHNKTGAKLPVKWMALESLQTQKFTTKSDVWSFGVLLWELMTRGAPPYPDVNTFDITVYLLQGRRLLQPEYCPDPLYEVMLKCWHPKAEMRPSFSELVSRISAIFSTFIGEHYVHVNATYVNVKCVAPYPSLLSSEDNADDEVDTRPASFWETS
Summary of the method: as §1

| IC50 [1] [µM] | IC50 [2] [µM] | IC50 [3] [µM] | IC50 [4] [µM] | IC50 [5] [µM] | IC50 [6] [µM] | IC50 [7] [µM] | IC50 [8] [µM] | IC50 [9] [µM] | IC50 [10] [µM] | IC50 [11] [µM] | IC50 [12] [µM] | IC50 [13] [µM] | IC50 [14] [µM] | IC50 [15] [µM] | IC50 [16] [µM] | IC50 [17] [µM] | IC50 [18] [µM] | IC50 [19] [µM] | SMILES |
| --- | --- | --- | --- | --- | --- | --- | --- | --- | --- | --- | --- | --- | --- | --- | --- | --- | --- | --- | --- |
| > 9.04 | > 9.04 | < 0.804 | > 9.04 | > 9.04 | < 0.804 | < 0.804 | > 9.04 | > 9.04 | 7.03 to 9.04 | > 9.04 | > 9.04 | > 9.04 | 4.82 to 7.03 | > 9.04 | > 9.04 | > 9.04 | 4.82 to 7.03 | > 9.04 | COc1cc(Nc2ncnc(-n3c(NCc4ccc(C)cc4)nc4ccccc43)n2)cc(OC)c1OC [Compound 516] |
| > 7.96 | < 0.707 | < 0.707 | > 7.96 | > 7.96 | < 0.707 | < 0.707 | > 7.96 | 4.24 to 6.19 | < 0.707 | > 7.96 | > 7.96 | > 7.96 | < 0.707 | > 7.96 | > 7.96 | > 7.96 | 4.24 to 6.19 | > 7.96 | COc1cc(Nc2ncnc(-n3c(NCc4ccccn4)nc4ccccc43)n2)cc(OC)c1OCCn1ccnn1 [Compound 942] |
| 6.1 to 8.9 | < 1.02 | < 1.02 | 1.02 to 6.1 | > 11.4 | < 1.02 | < 1.02 | 1.02 to 6.1 | 1.02 to 6.1 | < 1.02 | 1.02 to 6.1 | 1.02 to 6.1 | > 11.4 | < 1.02 | 1.02 to 6.1 | 1.02 to 6.1 | > 11.4 | < 1.02 | 1.02 to 6.1 | COc1cc(Nc2ncnc(N3c4ccccc4CC3C)n2)cc(OC)c1OC (stereo not shown) [Compound 610] |
| 7.38 to 9.48 | > 9.48 | > 9.48 | > 9.48 | > 9.48 | 7.38 to 9.48 | < 0.843 | > 9.48 | > 9.48 | > 9.48 | > 9.48 | > 9.48 | > 9.48 | 5.06 to 7.38 | > 9.48 | 7.38 to 9.48 | > 9.48 | 5.06 to 7.38 | > 9.48 | COc1ccc(Nc2ncccc2-c2ncnc(Nc3cc(OC)c(OC)c(OC)c3)n2)c(C)c1 [Compound 1086] |
| 4.54 to 6.62 | < 0.757 | 0.757 to 4.54 | 4.54 to 6.62 | > 8.51 | < 0.757 | < 0.757 | 6.62 to 8.51 | 0.757 to 4.54 | 0.757 to 4.54 | > 8.51 | 6.62 to 8.51 | > 8.51 | 0.757 to 4.54 | > 8.51 | 4.54 to 6.62 | 6.62 to 8.51 | 4.54 to 6.62 | > 8.51 | COc1cc(Nc2ncnc(-n3c(NCc4ccc([N+](=O)[O-])cc4)nc4ccccc43)n2)cc(OC)c1OC [Compound 952] |
| > 8 | < 0.711 | < 0.711 | > 8 | > 8 | 0.711 to 4.27 | 0.711 to 4.27 | > 8 | 4.27 to 6.22 | < 0.711 | 6.22 to 8 | > 8 | > 8 | 0.711 to 4.27 | > 8 | > 8 | > 8 | 0.711 to 4.27 | 6.22 to 8 | COc1cc(Nc2ncnc(-n3c(NCc4cccc(Br)c4)nc4ccccc43)n2)cc(OC)c1OC [Compound 946] |
| 7.58 to 9.75 | 0.867 to 5.2 | > 9.75 | 5.2 to 7.58 | > 9.75 | 7.58 to 9.75 | 7.58 to 9.75 | > 9.75 | > 9.75 | > 9.75 | < 0.867 | > 9.75 | > 9.75 | > 9.75 | > 9.75 | 0.867 to 5.2 | > 9.75 | > 9.75 | > 9.75 | COc1cc(Nc2ncnc(N3CCCc4ccc(C(F)(F)F)cc43)n2)cc(OC)c1OC [Compound 518] |
